From patent publication US7435837B2, “Dihydrobenzofuranyl alkanamine derivatives and methods for using same” (Wyeth, priority 2003, dated 2008)

Target: T1, human 5-HT2C receptor (Homo sapiens, UniProt P28335)
T1 sequence (P28335 33-458): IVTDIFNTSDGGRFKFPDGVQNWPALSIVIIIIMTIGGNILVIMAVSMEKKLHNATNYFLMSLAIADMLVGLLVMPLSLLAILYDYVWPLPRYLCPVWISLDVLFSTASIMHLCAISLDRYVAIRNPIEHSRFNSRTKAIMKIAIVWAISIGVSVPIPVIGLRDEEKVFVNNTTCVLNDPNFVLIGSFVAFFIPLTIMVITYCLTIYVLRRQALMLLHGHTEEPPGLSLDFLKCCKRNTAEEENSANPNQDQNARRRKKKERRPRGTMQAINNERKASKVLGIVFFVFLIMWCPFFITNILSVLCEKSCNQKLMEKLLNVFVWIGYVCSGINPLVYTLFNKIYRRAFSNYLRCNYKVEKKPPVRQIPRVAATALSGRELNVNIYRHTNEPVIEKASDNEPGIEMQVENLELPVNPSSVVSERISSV
Experiment: 5-HT2C receptor-stimulated calcium mobilization (FLIPR) in CHO cells;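 further: Fluo-3-AM fluorescence read on FLIPR every 1 s, agonist added after 10 baseline reads, response taken as peak minus lowest raw fluorescence count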
Type: cell-based
Conditions: for Emax: CHO, read-out: 5-HT2C Function Emax (%); for Emax / 5-HT2C Function Emax (%): percentage of the response observed with a maximally effective concentration of 5-HT; for EC50: calcium mobilization, CHO cells stably expressing human 5-HT2C, read-out: 5-HT2C Function EC50

| SMILES | Emax | EC50 | 5-HT2C Function Emax (%) |
| --- | --- | --- | --- |
| CNCC1Cc2cccc(-c3cc(F)ccc3F)c2O1 (racemic) [Example 428, (±)-[(N-methyl-1-[7-(2,5-difluorophenyl)-2,3-dihydro-1-benzofuran-2-yl]methanamine] | 80% | 69 nM | – |
| CNCC1Cc2cccc(-c3cc(Cl)ccc3OC)c2O1 (racemic) [Example 430, (±)-[(N-methyl-1-[7-(5-chloro-2-methoxyphenyl)-2,3-dihydro-1-benzofuran-2-yl]methanamine] | 80% | 448 nM | – |
| CNCC1Cc2cccc(-c3c(C)cccc3C)c2O1 (racemic) [Example 432, (±)-[(N-methyl-1-[7-(2,6-dimethylphenyl)-2,3-dihydro-1-benzofuran-2-yl]methanamine] | 80% | 72 nM | – |
| CNCC1Cc2cccc(-c3cccnc3)c2O1 (racemic) [Example 436, (±)-N-methyl-1-(7-pyridin-3-yl-2,3-dihydro-1-benzofuran-2-yl)methanamine] | 90% | 55 nM | – |
| CNCC1Cc2cccc(-c3cccc(F)c3F)c2O1 (racemic) [Example 437, (±)-[(N-methyl-1-[7-(2,3-difluorophenyl)-2,3-dihydro-1-benzofuran-2-yl]methanamine] | 80% | 30 nM | – |
| CNCC1Cc2cc(F)cc(-c3cccc(OC)c3OC)c2O1 (racemic) [Example 444, (±)-{[7-(2,3-dimethoxyphenyl)-5-fluoro-2,3-dihydro-1-benzofuran-2-yl]methyl}methylamine] | 80% | 37 nM | – |
| COc1cccc(-c2cc(F)cc3c2OC(CN)C3)c1OC (single isomer, unassigned; (+)) [Example 214, (+)-{[7-(2,3-dimethoxyphenyl)-5-fluoro-2,3-dihydro-1-benzofuran-2-yl]methyl}amine] | – | 79 nM | 70% |
| Cc1cccc(C)c1-c1cc(F)cc2c1OC(CN)C2 (single isomer, unassigned; (+)) [Example 228, (+)-{[7-(2,6-dimethylphenyl)-5-fluoro-2,3-dihydro-1-benzofuran-2-yl]methyl}amine] | – | 313 nM | 70% |
| Cc1cccc(C)c1-c1cc(Cl)cc2c1OC(CN)C2 (single isomer, unassigned; (+)) [Example 262, (+)-{[5-chloro-7-(2,6-dimethylphenyl)-2,3-dihydro-1-benzofuran-2-yl]methyl}amine] | – | 471 nM | 70% |
| COc1cccc(-c2cc(C)cc3c2OC(CN)C3)c1OC (single isomer, unassigned; (+)) [Example 296, (+)-{[7-(2,3-dimethoxyphenyl)-5-methyl-2,3-dihydro-1-benzofuran-2-yl]methyl}amine] | – | 50 nM | 80% |
| CNCC1Cc2cccc(-c3c(Cl)cccc3Cl)c2O1 (single isomer, unassigned; (+)) [Example 435, (+)-{[7-(2,6-dichlorophenyl)-2,3-dihydro-1-benzofuran-2-yl]methyl}methylamine] | – | 82 nM | 80% |
| CNCC1Cc2cc(F)cc(-c3ccc(Cl)cc3Cl)c2O1 (single isomer, unassigned; (+)) [Example 447] | – | 3 nM | 90% |

Other lines, results leading:

| Emax | EC50 | 5-HT2C Function Emax (%) | SMILES |
| --- | --- | --- | --- |
| 80% | 298 nM | – | CNCC1Cc2cccc(-c3cc(C)ccc3C)c2O1 (racemic) [Example 427, (±)-[(N-methyl-1-[7-(2,5-dimethylphenyl)-2,3-dihydro-1-benzofuran-2-yl]methanamine] |
| 90% | 63 nM | – | CNCC1Cc2cccc(-c3cc(Cl)ccc3C)c2O1 (racemic) [Example 431, (±)-[(N-methyl-1-[7-(5-chloro-2-methylphenyl)-2,3-dihydro-1-benzofuran-2-yl]methanamine] |
| 80% | 24 nM | – | CNCC1Cc2cc(F)cc(-c3c(C)cccc3C)c2O1 (racemic) [Example 453, (±)-{[7-(2,6-dimethylphenyl)-5-fluoro-2,3-dihydro-1-benzofuran-2-yl]methyl}methylamine] |
| 90% | 215 nM | – | CNCC1Cc2cc(Cl)cc(-c3ccccc3OC)c2O1 (racemic) [Example 460, (±)-[(5-chloro-7-(2-methoxyphenyl)-2,3-dihydro-1-benzofuran-2-yl]methyl}methylamine] |
| 80% | 34 nM | – | CNCC1Cc2cc(Cl)cc(-c3c(C)cccc3C)c2O1 (racemic) [Example 461, (±)-{[5-chloro-7-(2,6-dimethylphenyl)-2,3-dihydro-1-benzofuran-2-yl]methyl}methylamine] |
| 80% | 79 nM | – | CNCC1Cc2cc(Cl)cc(-c3ccccc3F)c2O1 (racemic) [Example 462, (±)-[(5-chloro-7-(2-fluorophenyl)-2,3-dihydro-1-benzofuran-2-yl]methyl}methylamine] |
| 70% | 462 nM | – | CNCC1Cc2cc(Cl)cc(-c3cccc(Cl)c3Cl)c2O1 (racemic) [Example 464, (±)-{[5-chloro-7-(2,3-dichlorophenyl)-2,3-dihydro-1-benzofuran-2-yl]methyl}methylamine] |
| 60% | 496 nM | – | CNCC1Cc2cc(Cl)cc(-c3cccc(C)c3C)c2O1 (racemic) [Example 465, (±)-{[5-chloro-7-(2,3-dimethylphenyl)-2,3-dihydro-1-benzofuran-2-yl]methyl}methylamine] |
| 70% | 55 nM | – | CNCC1Cc2cc(Cl)cc(-c3cccc(OC)c3OC)c2O1 (racemic) [Example 466, (±)-{[5-chloro-7-(2,3-dimethoxyphenyl)-2,3-dihydro-1-benzofuran-2-yl]methyl}methylamine] |
| 80% | 257 nM | – | CNCC1Cc2cc(Cl)cc(-c3ccc(F)cc3F)c2O1 (racemic) [Example 467, (±)-{[5-chloro-7-(2,4-difluorophenyl)-2,3-dihydro-1-benzofuran-2-yl]methyl}methylamine] |
| 80% | 73 nM | – | CNCC1Cc2cc(Cl)cc(-c3ccc(Cl)cc3Cl)c2O1 (racemic) [Example 468, (±)-{[5-chloro-7-(2,4-dichlorophenyl)-2,3-dihydro-1-benzofuran-2-yl]methyl}methylamine] |
| 80% | 21 nM | – | CNCC1Cc2cc(Cl)cc(-c3ccc(OC)cc3OC)c2O1 (racemic) [Example 469, (±)-{[5-chloro-7-(2,4-dimethoxyphenyl)-2,3-dihydro-1-benzofuran-2-yl]methyl}methylamine] |
| 70% | 289 nM | – | CNCC1Cc2cc(Cl)cc(-c3cc(F)ccc3F)c2O1 (racemic) [Example 470, (±)-{[5-chloro-7-(2,5-difluorophenyl)-2,3-dihydro-1-benzofuran-2-yl]methyl}methylamine] |
| 90% | 14 nM | – | CNCC1Cc2cc(Cl)cc(-c3cc(Cl)ccc3Cl)c2O1 (racemic) [Example 471, (±)-{[5-chloro-7-(2,5-dichlorophenyl)-2,3-dihydro-1-benzofuran-2-yl]methyl}methylamine] |
| 80% | 353 nM | – | CNCC1Cc2cc(Cl)cc(-c3cc(Cl)ccc3OC)c2O1 (racemic) [Example 472, (±)-{[5-chloro-7-(5-chloro-2-methoxyphenyl)-2,3-dihydro-1-benzofuran-2-yl]methyl}methylamine] |
